Consider 16 molecules from patent publication US9096596B2 (Janssen Pharmaceutica NV, priority 2013, dated 2015).

The term Ki denotes the dissociation constant of the complex between target and ligand, obtained from inhibition or displacement. As a reminder, the IC50 is the concentration at which inhibition is half-maximal.

Where two headings read alike, the source gives them in different places.

The target in test [1] is T1, P2X7 (Homo sapiens (Human), UniProt Q99572). In words: Radioligand binding, human P2X7-1321N1 cell membranes, tracer tritiated A-804598. How it is done:
(§1) On the day of the experiment, cell membrane preparations were made according to standard published methods. […] The compound can be prepared as described in the literature. […] The assay was terminated by filtration (GF/B filters pre-soaked with 0.3% PEI) and washed with washing buffer (Tris-HCl 50 mM). The IC50 generated in the binding assay was corrected for tracer concentration and affinity of the tracer to derive at the affinity (Ki) of the test compounds.

The target of test [2] is T1, P2X7. In words: P2X7 antagonism in human whole blood (IL-1β release, ELISA). The note with it: IL-1β release in human blood, LPS 30 ng/ml + Bz-ATP 1 mM. The test is classed as cell-based. Here is the method:
Human blood was collected using a blood donor program. […] Cells were incubated for an additional 1.5 hours.
On the technique in general: An ELISA detects its analyte on a solid surface through an enzyme-linked reagent.

Test [3] has as its target T1, P2X7. As to the kind of experiment: Ca2+ flux (FLIPR) in 1321N1 cells expressing recombinant human P2X7 channel. The test is classed as cell-based. The note with it: 250 μM BzATP, Calcium-4 dye. The method in brief:
(§2)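 1321N1 cells stably expressing P2X7 were loaded with Calcium-4 dye for 60 min in HEPES-buffered saline (pH 7.40, 1 mM CaCl2, 1 mM MgCl2), then preincubated with test compounds for 30 min. Fluorescence change was read 180 s after agonist addition.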
On the technique in general: A change in cytosolic calcium serves as a functional read-out for many receptors and channels.

The target of test [4] is T1, P2X7. As to the kind of experiment: P2X7 antagonism in human PBMCs (IL-1β release, ELISA). The following applies: test compound 10 μM, IL-1β release in human PBMCs, LPS 30 ng/ml + Bz-ATP 0.5 mM, read-out: PBMC 10 μM (% control). In kind it is cell-based. Here is the method: Human blood was collected using a blood donor program. […] Cells were incubated for an additional 1.5 hours. […] In Table 2, when the data cell has been left blank, it is intended to mean that the compound was not tested in that assay.

In test [5] the target is T2, rat P2X7 (Rattus norvegicus (Rat), UniProt Q64663). In words: Ca2+ flux (FLIPR) in 1321N1 cells expressing recombinant rat P2X7 channel. The test is classed as cell-based. The following applies: 250 μM BzATP, Calcium-4 dye. Summed up: as §2
In test [6] the target is T2, rat P2X7. In words: Radioligand binding, rat P2X7-1321N1 cell membranes, tracer tritiated A-804598. Here is the method: as §1
Setting [7] is: human P2X7-1321N1 membranes, 1 hour at 4° C., IC50 corrected for tracer concentration and affinity.
Setting [8] is: rat P2X7-1321N1 membranes, 1 hour at 4° C., IC50 corrected for tracer concentration and affinity.

T1 sequence (Q99572 whole entry): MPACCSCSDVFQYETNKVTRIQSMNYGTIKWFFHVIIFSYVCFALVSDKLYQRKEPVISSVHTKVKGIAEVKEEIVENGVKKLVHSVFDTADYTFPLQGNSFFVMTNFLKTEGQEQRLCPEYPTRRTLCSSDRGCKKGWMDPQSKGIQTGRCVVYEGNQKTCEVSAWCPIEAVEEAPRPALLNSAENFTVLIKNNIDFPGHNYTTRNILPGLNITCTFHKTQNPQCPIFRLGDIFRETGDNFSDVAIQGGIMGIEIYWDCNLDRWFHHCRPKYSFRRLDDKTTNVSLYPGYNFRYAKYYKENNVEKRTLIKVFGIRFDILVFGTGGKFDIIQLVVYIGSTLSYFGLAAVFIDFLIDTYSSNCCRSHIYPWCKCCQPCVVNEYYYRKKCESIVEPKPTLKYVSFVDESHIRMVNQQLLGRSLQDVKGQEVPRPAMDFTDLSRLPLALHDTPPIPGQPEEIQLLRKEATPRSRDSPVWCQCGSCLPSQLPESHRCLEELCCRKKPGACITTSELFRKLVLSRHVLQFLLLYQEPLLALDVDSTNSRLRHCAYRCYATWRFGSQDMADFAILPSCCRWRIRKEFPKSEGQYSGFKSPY
T2 sequence (Q64663 whole entry): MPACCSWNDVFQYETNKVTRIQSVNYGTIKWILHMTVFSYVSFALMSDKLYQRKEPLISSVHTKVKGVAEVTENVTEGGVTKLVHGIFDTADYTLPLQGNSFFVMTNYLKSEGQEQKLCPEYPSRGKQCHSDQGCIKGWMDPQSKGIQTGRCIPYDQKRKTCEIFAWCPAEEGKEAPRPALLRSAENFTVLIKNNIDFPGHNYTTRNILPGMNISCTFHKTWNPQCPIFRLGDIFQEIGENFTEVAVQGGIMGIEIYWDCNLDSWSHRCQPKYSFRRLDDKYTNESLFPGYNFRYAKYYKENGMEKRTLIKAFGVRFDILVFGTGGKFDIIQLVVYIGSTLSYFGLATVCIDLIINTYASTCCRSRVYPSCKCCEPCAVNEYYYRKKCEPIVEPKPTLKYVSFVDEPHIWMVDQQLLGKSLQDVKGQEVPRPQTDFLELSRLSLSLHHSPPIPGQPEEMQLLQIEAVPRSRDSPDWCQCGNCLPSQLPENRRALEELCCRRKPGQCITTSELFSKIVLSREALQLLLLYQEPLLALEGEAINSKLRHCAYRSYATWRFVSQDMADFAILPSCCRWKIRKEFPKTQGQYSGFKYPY

As to `Cn1ccc(-c2ncnc3c2CCN(C(=O)c2cccc(C(F)(F)F)c2Cl)C3)n1` [Example 19, 7-{[2-Chloro-3-(trifluoromethyl)phenyl]carbonyl}-4-(1-methyl-1H-pyrazol-3-yl)-5,6,7,8-tetrahydropyrido[3,4-d]pyrimidine], in test [1] (setting [7]), the Ki worked out at 25.1 nM. Also, the IC50 in test [2] is 630 nM; in test [3], 26.1 nM; in test [5] it was 9.9 nM. Moreover, the remaining activity at 10 µM in test [4] amounted to 13.8%.

As to `O=C(c1cccc(Cl)c1Cl)N1CCc2c(ncnc2-n2nccn2)C1` [Example 107, 7-[(2,3-Dichlorophenyl)carbonyl]-4-(2H-1,2,3-triazol-2-yl)-5,6,7,8-tetrahydropyrido[3,4-d]pyrimidine], the Ki in test [1] (setting [7]) is 9.5 nM; in test [6] (setting [8]), 24 nM. Moreover, the IC50 in test [2] turned out to be 1120 nM; in test [3], 4.5 nM; in test [5], 2480 nM.

`O=C(c1cccc(Cl)c1Cl)N1CCc2c(ncnc2-c2ccccc2)C1` [Example 2, 7-[(2,3-Dichlorophenyl)carbonyl]-4-phenyl-5,6,7,8-tetrahydropyrido[3,4-d]pyrimidine]: the Ki in test [1] (setting [7]) was determined as 95.5 nM; in test [6] (setting [8]), 251 nM. In addition, the values for the IC50 in test [3] and in test [5] were 36.5 nM and 3240 nM, respectively.

As for `O=C(c1cccc(Cl)c1Cl)N1CCc2c(ncnc2-c2ccn[nH]2)C1` [Example 7, 7-[(2,3-Dichlorophenyl)carbonyl]-4-(1H-pyrazol-5-yl)-5,6,7,8-tetrahydropyrido[3,4-d]pyrimidine], the Ki is 15.4 nM in test [1] (setting [7]) and 14.5 nM in test [6] (setting [8]). Besides, the IC50 came to 560 nM in test [2], 20.7 nM in test [3] and 489 nM in test [5].

In the case of `O=C(c1cccc(C(F)(F)F)c1Cl)N1CCc2c(ncnc2-c2cscn2)C1` [Example 43, 7-{[2-Chloro-3-(trifluoromethyl)phenyl]carbonyl}-4-(1,3-thiazol-4-yl)-5,6,7,8-tetrahydropyrido[3,4-d]pyrimidine], the inhibition constant (Ki) in test [1] (setting [7]) was found to be 50.1 nM; in test [6] (setting [8]), 10 nM. In addition, the results for the IC50 in test [3] and in test [5] were 15.8 nM and 158 nM, respectively.

In the case of `O=C(c1cccc(C(F)(F)F)c1Cl)N1CCc2c(ncnc2-c2ccccn2)C1` [Example 12, 7-{[2-Chloro-3-(trifluoromethyl)phenyl]carbonyl}-4-pyridin-2-yl-5,6,7,8-tetrahydropyrido[3,4-d]pyrimidine], the Ki in test [1] (setting [7]) turned out to be 58.9 nM; in test [6] (setting [8]), 57.5 nM. Moreover, the IC50 in test [2] came to 2000 nM; in test [3], 28.1 nM; in test [5], 5970 nM.

Consider `Cc1nc2c(c(-c3ccn[nH]3)n1)CCN(C(=O)c1cccc(Cl)c1Cl)C2` [Example 34, 7-[(2,3-Dichlorophenyl)carbonyl]-2-methyl-4-(1H-pyrazol-5-yl)-5,6,7,8-tetrahydropyrido[3,4-d]pyrimidine], for which the results for the Ki in test [1] (setting [7]) and in test [6] (setting [8]) were 63.1 nM and 20 nM, respectively. The IC50 in test [3] came out at 86.1 nM; in test [5] it was 2020 nM.

Regarding `Cc1c(C(=O)N2CCc3c(ncnc3-c3cnccn3)C2)cccc1C(F)(F)F` [Example 15, 7-{[2-Methyl-3-(trifluoromethyl)phenyl]carbonyl}-4-pyrazin-2-yl-5,6,7,8-tetrahydropyrido[3,4-d]pyrimidine], the values for the Ki in test [1] (setting [7]) and in test [6] (setting [8]) were 79.4 nM and 50.1 nM, respectively. In addition, the half-maximal inhibitory concentration (IC50) is 31.6 nM in test [3] and 6310 nM in test [5].

Consider `Cc1nc2c(c(-c3[nH]ncc3F)n1)CCN(C(=O)c1cccc(C(F)(F)F)c1Cl)C2` [Example 35, 7-{[2-Chloro-3-(trifluoromethyl)phenyl]carbonyl}-4-(4-fluoro-1H-pyrazol-5-yl)-2-methyl-5,6,7,8-tetrahydropyrido[3,4-d]pyrimidine], for which the Ki in test [1] (setting [7]) turned out to be 39.8 nM; in test [6] (setting [8]) it was 12.6 nM. The results for the IC50 in test [3] and in test [5] were 48.3 nM and 269 nM, respectively.

Consider `COCCn1ccc(-c2nc(C)nc3c2C[C@@H](C)N(C(=O)c2cccc(C(F)(F)F)c2Cl)C3)n1` (single isomer, unassigned) [Example 128, (R*)-(2-chloro-3-(trifluoromethyl)phenyl)(4-(1-(2-methoxyethyl)-1H-pyrazol-3-yl)-2,6-dimethyl-5,6-dihydropyrido[3,4-d]pyrimidin-7(8H)-yl)methanone], for which the figures for the Ki in test [1] and in test [6] were 31.6 nM and 3 nM, respectively. The IC50 came out at 29.6 nM in test [3] and 9.7 nM in test [5].

As to `Cc1nc2c(c(-c3ccn(CCF)n3)n1)C[C@@H](C)N(C(=O)c1cccc(C(F)(F)F)c1Cl)C2` (single isomer, unassigned) [Example 124, (R*)-(2-chloro-3-(trifluoromethyl)phenyl)(4-(1-(2-fluoroethyl)-1H-pyrazol-3-yl)-2,6-dimethyl-5,6-dihydropyrido[3,4-d]pyrimidin-7(8H)-yl)methanone], the Ki in test [1] was determined as 25.1 nM; in test [6], 3.5 nM. Moreover, the IC50 was 31 nM in test [3] and 12.9 nM in test [5].

Regarding `O=C(c1cccc(Cl)c1Cl)N1CCc2c(ncnc2-c2ccccn2)C1` [Example 11, 7-[(2,3-Dichlorophenyl)carbonyl]-4-pyridin-2-yl-5,6,7,8-tetrahydropyrido[3,4-d]pyrimidine], the results for the Ki in test [1] (setting [7]) and in test [6] (setting [8]) were 37.2 nM and 61.7 nM, respectively. In addition, the IC50 in test [3] is 416 nM; in test [5], over 10000 nM.

On to `Cc1nc2c(c(-c3ccn[nH]3)n1)CCN(C(=O)c1cccc(C(F)(F)F)c1Cl)C2` [Example 33, 7-{[2-Chloro-3-(trifluoromethyl)phenyl]carbonyl}-2-methyl-4-(1H-pyrazol-5-yl)-5,6,7,8-tetrahydropyrido[3,4-d]pyrimidine], for which the inhibition constant (Ki) came out at 16.4 nM in test [1] (setting [7]) and 12 nM in test [6] (setting [8]). In addition, the results for the concentration for half-maximal inhibition (IC50) in test [2], in test [3] and in test [5] were 1120 nM, 8 nM and 1110 nM, respectively.

With `O=C(c1cccc(Cl)c1Cl)N1CCc2c(ncnc2-n2nccn2)C1` [Example 23, 7-[(2,3-Dichlorophenyl)carbonyl]-4-(2H-1,2,3-triazol-2-yl)-5,6,7,8-tetrahydropyrido[3,4-d]pyrimidine], the IC50 in test [2] is 1120 nM.

Turning to `O=C(c1ccc(Cl)c(F)c1Cl)N1CCc2c(ncnc2-c2ccn[nH]2)C1` [Example 20, 7-[(2,4-Dichloro-3-fluorophenyl)carbonyl]-4-(1H-pyrazol-5-yl)-5,6,7,8-tetrahydropyrido[3,4-d]pyrimidine], the Ki in test [1] (setting [7]) is 25.1 nM; in test [6] (setting [8]) it was 3.5 nM. Moreover, the IC50 in test [2] stood at 1230 nM; in test [3] it was 5.9 nM; in test [5], 338 nM. For the same molecule, the remaining activity at 10 µM in test [4] was -0.2%.

As for `Cc1nc2c(c(-c3[nH]ncc3C(F)(F)F)n1)CCN(C(=O)c1cccc(C(F)(F)F)c1Cl)C2` [Example 39, 7-{[2-Chloro-3-(trifluoromethyl)phenyl]carbonyl}-2-methyl-4-[4-(trifluoromethyl)-1H-pyrazol-5-yl]-5,6,7,8-tetrahydropyrido[3,4-d]pyrimidine], the Ki in test [1] (setting [7]) amounted to 50.1 nM; in test [6] (setting [8]), 17.8 nM. The results for the IC50 in test [3] and in test [5] were 100 nM and 25.1 nM, respectively.
